{
  "source": "patent US20050118228A1",
  "about": "“Compositions and methods for augmentation or repair of intervertebral discs” (priority 2003, published 2005)",
  "test_system": "Adult human keratinocytes",
  "assay": "Telomerase expression (TRAP assay kit) in treated keratinocytes",
  "type": "cell-based",
  "details": "keratinocytes exposed to both agents in sequence: 10-25 μM 5-aza-2′-deoxycytidine for 5 days and 100-250 ng/ml trichostatin for 1 day; versus cells not exposed",
  "method": "Adult human keratinocytes are obtained form Clonetics (San Diego, Calif.) and grown in Keratinocyte Growth Media in 5-10% CO2 at 37 degree C. according to the instructions “Keratinocyte System Instructions” BioWhittaker Catalogue number AA-1000. When the adult keratinocytes are about 40-80% confluent, 10-25 μM 5-aza-2′-deoxycytidine (Sigma, St Louis, Mo.) is added to the culture. After 4 days of incubation with 5-aza-2′-deoxycytidine, 100-250 ng/ml trichostatin (Sigma, St Louis, Mo.) is added to the culture. The culture is incubated for an additional day and sampled for telomerase activity.\nKeratinocytes exposed to 10-25 μM 5-aza-2′-deoxycytidine for 5 days and 100-250 ng/ml trichostatin for 1 day and cells not exposed to these agents are assayed for the expression of telomerase (using a commercially available TRAP assay kit). These cells are assayed along side positive controls (HeLa and NH-12 cells) and negative controls (human foreskin fibroblasts and heated HN-12 cell extracts). Telomerase activity is measured by phosphoimaging telomeric products resolved on 12.5% […]. Telometric ladders indicative of telomerase activity, consistent with the presence of stem cells is observed in the positive controls and in the keratinocytes exposed to 10-25 μM 5-aza-2′-deoxycytidine for 5 days and 100-250 ng/ml trichostatin for 1 day.",
  "data": [
    {"compound": "CC(/C=C/C(=O)NO)=C\\[C@@H](C)C(=O)c1ccc(N(C)C)cc1", "note": "[trichostatin]", "values": [
      {"measurement": "Telomerase activity (telomeric ladders)", "value": "increased telomerase activity"}
    ]},
    {"compound": "Nc1ncn([C@H]2C[C@H](O)[C@@H](CO)O2)c(=O)n1", "note": "[5-aza-2′-deoxycytidine]", "values": [
      {"measurement": "Telomerase activity (telomeric ladders)", "value": "increased telomerase activity"}
    ]}
  ]
}
